Experimental data from patent US8008329B2 (Dong Wha Pharmaceutical Co., Ltd., priority 2008, dated 2011).
Marks after values point to notes of the source that are not given here.

Tested on: osteoclast differentiation
Experiment: Osteoclast differentiation in co-culture of mouse bone marrow cells and ST2 cells, TRAP staining (Examples 8-9)
Type: cell-based
Conditions: for % number of osteoclast (vs. solvent control group): 0.1 μM each, day 7; for activity at 0.1 µM: Mus musculus, Osteoclast, 168 h, Individual treatment (compounds), day 7, read-out: % number of osteoclast (vs. solvent control group)
Experimental: The differentiation of osteoclast from mouse bone marrow cells was induced by using co-culture system, and inhibitory effect of the drug on osteoclast differentiation was evaluated by treatment of single or combination formulation. Co-culture was performed using mouse bone marrow cells and ST cells of bone marrow-derived stromal cell.
Femora and tibia were aseptically ectomized from 6˜8 week-old male ddY mice to harvest bone marrow cells by a general method using a syringe. The red blood cells were removed from the bone marrow cells, followed by centrifugation. The bone marrow cells were suspended in α-MEM medium supplemented with 10% fetal bovine serum, and the numbers of the eukaryotic cells in the harvested bone marrow cells were counted and then immediately used for a co-culture system.
ST2 cells (RIKEN Cell Bank, Tsukuba, Japan) were cultured in α-MEM medium supplemented with 10% fetal bovine serum until confluent. Then, these cells were diluted to a desired cell number, and used for the experiment.
The bone marrow cells (1×10^5 cells/well) and ST2 cells (3,000 cells/well) prepared in the above were plated in a 96-well plate using α-MEM medium supplemented with 10% fetal bovine serum. At this time, differentiation factors, 1α,25-dihydroxyvitamin D3 (10^−8 M, hereinbelow, referred to as vitamin D3) and dexamethasone (10^−8 M), were co-added to the medium to induce osteoclast differentiation. The medium was replaced with fresh media containing the differentiation factors every 2 to 3 days.
After 7 days, when multinucleated osteoclasts were observed, the medium was removed from the wells, and then the cells were fixed with PBS containing 10% Formalin. Tartrate-Resistant Acid Phosphatase (hereinbelow, referred to as TRAP) was used as a marker to measure the mature osteoclast in consideration of its characteristics showing a positive reaction to a TRAP staining solution. The TRAP staining solution was prepared in such the manner that a substrate, naphtol AS-MS phosphate and a coloring agent (Fast Red Violet LB salt) were dissolved in N,N-dimethylformamide. A 0.1 N NaHCO3 buffer solution containing 50 mM tartaric acid was added thereto, and the mixture was stored at a refrigerator prior to use as a staining solution. The osteoclasts with 6-7 or more nuclei showing a TRAP-positive reaction were counted under a microscope.
Alendronic acid was dissolved in distilled water at a concentration of 0.1 mM, and benzamidine derivatives were dissolved in DMSO at a concentration of 0.1 mM. All of them were diluted 1,000 fold with the differentiation media to a final concentration of 0.1 μM, respectively. In this connection, a control group was maintained in 0.1% DMSO.
As the above described, the sample substances and cells, which were diluted to the desired concentrations, were plated in 96-well plate, and co-cultured. On days 3 and 5 of culture, the media were replaced with fresh differentiation media containing the sample substances. On day 7 of culture, TRAP staining was performed to count the mature multinucleated osteoclast that was formed by differentiation. The mature osteoclasts with 6 or more nuclei were counted under a microscope. The results were expressed as a percentage (%) of the number of mature osteoclast observed in each experimental group, when the number of mature osteoclast in the control group (solvent only) was regarded as 100%. The experiment was performed with 4 wells per experimental group (n=4), and the results were expressed as mean value±standard deviation. In addition, the experiment was repeated at least two times, and Student t-test was applied for significant difference between experimental groups.
The experiment was performed in the same manner as in Example 8 to evaluate the effect of individual or combination treatment of risedronic acid and benzamidine derivatives of Formula 1 on osteoclast differentiation, except using 0.1 μM risedronic acid instead of 0.1 μM alendronic acid. […]

[1] = Combination treatment (alendronic acid + compounds)
[2] = Combination treatment (risedronic acid + compounds)

SMILES	% number of osteoclast (vs. solvent control group) [1]	% number of osteoclast (vs. solvent control group) [2]	activity at 0.1 µM
CCCCc1sc(C(C)(C)C)nc1-c1ccc(OCCCCCOc2ccc(C(=N)NO)cc2)cc1 [Compound 37, N-hydroxy-4-{5-[4-(5-butyl-2-t-butyl-1,3-thiazol-4-yl)phenoxy]pentyloxy}-benzamidine]	30 ± 9.9^b %	36 ± 14.4^c %	68 ± 18.9%
Cc1nc(-c2ccc(OCc3ccccc3COc3ccc(C(=N)NO)cc3)cc2)c(C(C)C)s1 [Compound 208, N-hydroxy-4-{2-[4-(5-isopropyl-2-methyl-thiazol-4-yl)-phenoxymethyl]-benzyloxy}-benzamidine]	75 ± 6.3%	67 ± 6.5^ac %	92 ± 5.8%
CCCCc1sc(NC)nc1-c1ccc(OCCCCCOc2ccc(C(=N)NO)cc2)cc1 [Compound 105, N-hydroxy-4-{5-[4-(5-butyl-2-methylamino-1,3-thiazol-4-yl)phenoxy]pentyloxy}-benzamidine]	42 ± 3.0^b %	41 ± 8.8^ac %	87 ± 11%
CN(Cc1ccncc1)c1nc(-c2ccc(OCCCCCOc3ccc(C(=N)NO)cc3)cc2)c(CN2CCOCC2)s1 [Compound 309, N-hydroxy-4-(5-{4-[2-(methyl-pyridin-4-ylmethyl-amino)-5-morpholin-4-ylmethyl-thiazol-4-yl]-phenoxy}-pentyloxy)-benzamidine]	13 ± 5.1^ab %	8 ± 3.0^ac %	50 ± 6.1%
COCCN(CCOC)c1nc(-c2ccc(OCCCCCOc3ccc(C(=N)NO)cc3)cc2)c(C)s1 [Compound 122, N-hydroxy-4-[5-(4-{2-[bis-(2-methoxyethyl) -amino]-5-methyl-1,3-thiazol-4-yl}phenoxy)pentyloxy]-benzamidine]	37 ± 8.1^ab %	49 ± 7.3^ac %	71 ± 4.4%
Cc1nc(-c2ccc(OCCCCCOc3ccc(C(=N)NO)cc3)cc2)c(CCNCCCOC(C)C)s1 [Compound 220, N-hydroxy-4-[5-(4-{5-[2-(3-isopropoxy-propylamino)-ethyl]-2-methyl-thiazol-4-yl}-phenoxy)-pentyloxy]-benzamidine]	53 ± 4.7^ab %	40 ± 5.1^ac %	69 ± 3.2%
N=C(NO)c1ccc(OCCCCCOc2ccc(-c3nc(-c4cccnc4)sc3Cc3ccccc3)cc2)cc1 [Compound 41, N-hydroxy-4-{5-[4-(5-benzyl-2-pyridin-3-yl-1,3-thiazol-4-yl)phenoxy]pentyloxy}-benzamidine]	29 ± 5.0^b %	31 ± 2.6^c %	31 ± 9.4%
Cc1nc(-c2ccc(OCCCCCOc3ccc(C(=N)NO)cc3)cc2)c(CNCCN2CCOCC2)s1 [Compound 302, N-hydroxy-4-[5-(4-{2-methyl-5-[(2-morpholin-4-yl-ethylamino)-methyl]-thiazol-4-yl}-phenoxy)-pentyloxy]-benzamidine]	16 ± 4.5^ab %	9 ± 2.8^ac %	59 ± 10.6%
C=Cc1sc(N)nc1-c1ccc(OCCCCCOc2ccc(C(=N)NO)cc2)cc1 [Compound 78, N-hydroxy-4-{5-[4-(5-vinyl-2-amino-1,3-thiazol-4-yl)phenoxy]pentyloxy}-benzamidine]	36 ± 4.2^ab %	20 ± 1.7^a %	67 ± 2.1%
N=C(NO)c1ccc(OCCCCCOc2ccc(-c3nc(N4CCOCC4)sc3CC3CCCC3)cc2)cc1 [Compound 168, N-hydroxy-4-{5-[4-(5-cyclopentylmethyl-2-morpholino-1,3-thiazol-4-yl)phenoxy]pentyloxy}-benzamidine]	39 ± 5.2^ab %	29 ± 9.7^ac %	70 ± 9.1%
N=C(NO)c1ccc(OCCCCCOc2ccc(-c3nc(C4CCCCC4)sc3CCN(C(=O)c3cccnc3)C3CC3)cc2)cc1 [Compound 281, N-hydroxy-4-{5-[4-(2-cyclohexyl-5-{2-[cyclopropyl-(pyridin-3-carbonyl)-amino]-ethyl}-thiazol-4-yl)-phenoxy]-pentyloxy}-benzamidine]	22 ± 5.9^b %	6 ± 2.5^ac %	30 ± 7.6%
N=C(NO)c1ccc(OCCCCCOc2ccc(-c3nc(N4CCCCC4)sc3N3CCOCC3)cc2)cc1 [Compound 337, N-hydroxy-4-{5-[4-(5-morpholin-4-yl-2-piperidin-1-yl-thiazol-4-yl)-phenoxy]-pentyloxy}-benzamidine]	20 ± 3.0^ab %	16 ± 3.6^ac %	53 ± 3.7%
CCCCCc1nc(-c2ccc(OCCCCCOc3ccc(C(=N)NO)cc3)cc2)cs1 [Compound 9, N-hydroxy-4-{5-[4-(2-pentyl-1,3-thiazol-4-yl)phenoxy]pentyloxy}-benzamidine]	52 ± 15.8%	43 ± 2.6^ac %	64 ± 3.4%
Cc1sc(NC(=O)c2ccncc2)nc1-c1ccc(OCCCCCOc2ccc(C(=N)NO)cc2)cc1 [Compound 91, N-hydroxy-4-{5-[4-(5-methyl-2-(4-pyridylcarbonyl)amino-1,3-thiazol-4-yl)phenoxy]pentyloxy}-benzamidine]	35 ± 2.7^ab %	32 ± 7.0^ac %	60 ± 8.8%
CN(CCN1CCOCC1)c1nc(-c2ccc(OCCCCCOc3ccc(C(=N)NO)cc3)cc2)c(C2CCCC2)s1 [Compound 153, N-hydroxy-4-[5-(4-{5-cyclopentyl-2-[methyl-(2-morpholinoethyl)amino]-1,3-thiazol-4-yl}phenoxy)pentyloxy]-benzamidine]	27 ± 3.5^ab %	22 ± 4.5^ac %	55 ± 3.1%
N=C(NO)c1ccc(OCCCCCOc2ccc(-c3nc(N4CCOCC4)sc3CCN3CCSCC3)cc2)cc1 [Compound 273, N-hydroxy-4-(5-{4-[2-morpholin-4-yl-5-(2-thiomorpholin-4-yl-ethyl)-thiazol-4-yl]-phenoxy}-pentyloxy)-benzamidine]	25 ± 4.5^ab %	11 ± 2.9^ac %	53 ± 3.4%
Cc1nc(-c2ccc(OCCCCCOc3ccc(C(=N)NO)cc3)cc2)cs1 [Compound 3, N-hydroxy-4-{5-[4-(2-methyl-1,3-thiazol-4-yl)phenoxy]pentyloxy}-benzamidine]	40 ± 4.6^b %	33 ± 6.8^c %	52 ± 8.9%
CN(C)CCc1sc(C2CCCCC2)nc1-c1ccc(OCCCCCOc2ccc(C(=N)NO)cc2)cc1 [Compound 250, N-hydroxy-4-(5-{4-[2-cyclohexyl-5-(2-dimethylamino-ethyl)-thiazol-4-yl]-phenoxy}-pentyloxy)-benzamidine]	45 ± 5.2^b %	12 ± 1.4^ac %	52 ± 7.2%
CCCN(CCC)c1nc(-c2ccc(OCCCCCOc3ccc(C(=N)NO)cc3)cc2)c(C(C)C)s1 [Compound 157, N-hydroxy-4-{5-[4-(5-isopropyl-2-dipropylamino-1,3-thiazol-4-yl)phenoxy]pentyloxy}-benzamidine]	39 ± 8.3^ab %	36 ± 15.1^ac %	78 ± 13.5%
